From PubChem BioAssay AID1918932 (Molecular Pharmacology Branch, DTP, NCI, 2023)

System: 171881-019-R-J1-PDC complex spheroid viability
Experiment: Anticancer human tumor 171881-019-R-J1-PDC patient-derived invasive breast carcinoma cell line growth inhibition
Details: for IC50: curve of first compound; for viability, T/C: stronger effect = lower value
Description: Multicellular complex tumor spheroid response to LSD1 Inhibitor Iadademstat in combination with a variety of drugs and investigational agents in selected tumor cell lines
The current study was undertaken to assess response to LSD1 inhibitors in combination with standard-of-care drugs and investigational agents in solid tumor complex spheroid models as well as in the K-562 leukemia. Complex spheroids include a stromal component modeled by human endothelial cells (HUVEC) and fibroblasts modeled by human mesenchymal stem cells (MSCs). The concentration ranges selected for each drug and investigational agent were based upon clinically achievable concentrations if the clinical Cmax of the agent was known.
Compounds. The drugs and investigational agents used in this study are listed on Table 1. All of the agents used, including staurosporine (NSC755774) and gemcitabine (NSC613327), were obtained from the Developmental Therapeutics Program, NCI. FDA-approved anticancer drugs are available from the NCI at http://dtp.nci.nih.gov/branches/dscb/oncology_drugset_explanation.html. Drugs and investigational agents were >95% pure by proton nuclear magnetic resonance (NMR) and liquid chromatography/mass spectrometry (LC/MS). Stock solutions were prepared at 400x in DMSO, stored at -70 degrees C, and diluted in fresh medium prior to their use. The final concentration of DMSO in cell culture wells never exceeded 0.25% (v/v). The FDA-approved anticancer drug set is available from the Developmental Therapeutics Program at https://dtp.cancer.gov/organization/dscb/obtaining/available_plates.htm. All drugs and investigational agents were tested over a range starting from a high concentration at or near the clinical Cmax and decreasing in half-log increments. If the clinical Cmax for an agent had not been determined, the highest concentration tested was 10 microM.
Cell Lines. The patient-derived cancer cell (PDC) lines: 292921-168-R-J2-PDC, K24384-001-R-PDC, and 521955-158-R2-J5-PDC pancreatic carcinomas, 556581-035-R-J1 ovarian carcinoma, 324938-238-R-J1-PDC, 855422-203-R-J1-PDC and 883617-216-R-J1-PDC urothelial bladder carcinomas, 743489-274-T-PDC renal cell carcinoma, 138582-R-J1 Merkel cell tumor, K60290-347-R-J1 and K57222-313-R-J1-PDC glioblastomas, 653999-131-R-J2-PDC, LG0703-F948-PDC, and 349418-098-R-PDC non-small cell lung carcinomas, 885512-296-R-J2-PDC, 171881-019-R-J1-PDC breast carcinomas and 186277-243-T-J2-PDC and 233499-124-R-J2-PDC colon carcinomas were obtained from the NCI Patient-Derived Models Repository (PDMR, https://pdmr.cancer.gov). The established cell lines NCI/ADR-RES (RRID:CVCL_14520 and OVCAR-5 (RRID:CVCL_1628) ovarian carcinomas, 786-O (RRID:CVCL_1051) and A498 (RRID:CVCL_A498) renal cell carcinoma, NCI-H211 (ATCC, cat. CRL-5824; RRID:CVCL_1529), NCI-H196 (ATCC, cat. CRL-5823, RRID:CVCL_1509), SW 1271 (ATCC, cat. CRL-2177, RRID:CVCL_1716) and NCI-H1876 (ATCC, cat. CRL-5902, RRID:CVCL_1503) small cell lung carcinomas, MDA-MB-231 (RRID:CVCL_0062) and MDA-MB-468 (RRID:CVCL_0419)breast carcinomas (10-12). Pooled donor human umbilical vein endothelial cells (HUVEC, Lonza, cat. CC-2519) and human mesenchymal stem cells (hMSC, Lonza, cat. PT-2501) were purchased from Lonza (Walkersville, MD).
Cell Culture. All cells were maintained in an incubator at 37 degrees C and 5% CO2 with 95% humidity. The PDC lines were cultured according to standard operating procedures established by the NCI PDMR (https://pdmr.cancer.gov). Briefly all PDCs were thawed and cultured in Matrigel-coated flasks prepared with a working solution of 1X Ham's F-12 nutrient mix, without supplementation (Invitrogen, Waltham, MA, cat. 11765054), 100 U/mL penicillin-streptomycin (Invitrogen, cat. 15140122), and 2.5% Matrigel (Corning Inc., Corning, NY, cat. 354248) for the first three passages. […]
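Further: spheroids exposed to agents for 7 days after 3 days growth.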

Compound: CC(C)CC(NC(=O)CNC(=O)c1cc(Cl)ccc1Cl)B1OC(=O)CC(CC(=O)O)(C(=O)O)O1 (stereo not given) + NC1CCC(NC2CC2c2ccccc2)CC1
- IC50 (second compound 0.1 µM): 3.66 nM
- IC50 (second compound 0.316 µM): 3.22 nM
- IC50 (second compound 1 µM): 3.66 nM
- IC50 (second compound 3.16 µM): 3.84 nM
- IC50 (second compound 10 µM): 3.71 nM
- viability, T/C (second compound 0.1 µM, first compound 0.000316 µM): 87.4%
- viability, T/C (second compound 0.1 µM, first compound 0.001 µM): 86.8%
- viability, T/C (second compound 0.1 µM, first compound 0.00316 µM): 54.9%
- viability, T/C (second compound 0.1 µM, first compound 0.01 µM): 13.2%
- viability, T/C (second compound 0.1 µM, first compound 0.0316 µM): 3.51%
- viability, T/C (second compound 0.1 µM, first compound 0.1 µM): 4.11%
- viability, T/C (second compound 0.316 µM, first compound 0.000316 µM): 84.8%
- viability, T/C (second compound 0.316 µM, first compound 0.001 µM): 83.8%
- viability, T/C (second compound 0.316 µM, first compound 0.00316 µM): 49.8%
- viability, T/C (second compound 0.316 µM, first compound 0.01 µM): 11.8%
- viability, T/C (second compound 0.316 µM, first compound 0.0316 µM): 3.3%
- viability, T/C (second compound 0.316 µM, first compound 0.1 µM): 1.04%
- viability, T/C (second compound 1 µM, first compound 0.000316 µM): 79%
- viability, T/C (second compound 1 µM, first compound 0.001 µM): 82.2%
- viability, T/C (second compound 1 µM, first compound 0.00316 µM): 54.5%
- viability, T/C (second compound 1 µM, first compound 0.01 µM): 13.6%
- viability, T/C (second compound 1 µM, first compound 0.0316 µM): 3.7%
- viability, T/C (second compound 1 µM, first compound 0.1 µM): 1%
- viability, T/C (second compound 3.16 µM, first compound 0.000316 µM): 91.7%
- viability, T/C (second compound 3.16 µM, first compound 0.001 µM): 90.8%
- viability, T/C (second compound 3.16 µM, first compound 0.00316 µM): 57.1%
- viability, T/C (second compound 3.16 µM, first compound 0.01 µM): 12.4%
- viability, T/C (second compound 3.16 µM, first compound 0.0316 µM): 3.26%
- viability, T/C (second compound 3.16 µM, first compound 0.1 µM): 0.97%
- viability, T/C (second compound 10 µM, first compound 0.000316 µM): 86.1%
- viability, T/C (second compound 10 µM, first compound 0.001 µM): 94.2%
- viability, T/C (second compound 10 µM, first compound 0.00316 µM): 56.2%
- viability, T/C (second compound 10 µM, first compound 0.01 µM): 8.46%
- viability, T/C (second compound 10 µM, first compound 0.0316 µM): 1.96%
- viability, T/C (second compound 10 µM, first compound 0.1 µM): 0.65%
